Data as given in ChEMBL document CHEMBL5120827, “Metabolomics and Genomics Approach for the Discovery of Serrawettin W2 Lipopeptides from Serratia marcescens NP2” (J Nat Prod, 2022).

Test system: Enterococcus faecium
Test: Antibacterial activity against clinical isolate Enterococcus faecium assessed as reduction in microbial growth by broth microdilution
Type: functional, organism-based

SMILES	MIC [µg/mL]	IC50 [µg/mL]
CCCCCCCCCC1CC(=O)N[C@H](CC(C)C)C(=O)N[C@@H](CO)C(=O)N[C@@H]([C@@H](C)O)C(=O)N[C@@H](Cc2ccccc2)C(=O)N[C@@H](CC(C)C)C(=O)O1 (stereo not given in full)	> 125	–
CCCCCC1CC(=O)N[C@H](CC(C)C)C(=O)N[C@@H](CO)C(=O)N[C@@H]([C@@H](C)O)C(=O)N[C@@H](Cc2ccccc2)C(=O)N[C@@H](CC(C)C)C(=O)O1 (stereo not given in full)	> 125	–
CCCCCC1CC(=O)N[C@H](CC(C)C)C(=O)N[C@@H](CO)C(=O)N[C@@H]([C@@H](C)O)C(=O)N[C@@H](Cc2ccccc2)C(=O)N[C@@H](C(C)C)C(=O)O1 (stereo not given in full)	> 125	–
CCCCCCCCCC1CC(=O)N[C@H](CC(C)C)C(=O)N[C@@H](CO)C(=O)N[C@@H]([C@@H](C)O)C(=O)N[C@@H](Cc2ccccc2)C(=O)N[C@@H]([C@@H](C)CC)C(=O)O1 (stereo not given in full)	> 125	–
CCCCCCCC1CC(=O)N[C@H](CC(C)C)C(=O)N[C@@H](CO)C(=O)N[C@@H]([C@@H](C)O)C(=O)N[C@@H](Cc2ccccc2)C(=O)N[C@@H](CC(C)C)C(=O)O1 (stereo not given in full)	15.6	8.4
CCCCCC1CC(=O)N[C@H](CC(C)C)C(=O)N[C@@H](CO)C(=O)N[C@@H]([C@@H](C)O)C(=O)N[C@@H](Cc2ccccc2)C(=O)N[C@@H]([C@@H](C)CC)C(=O)O1 (stereo not given in full)	62.5	53.1
CCCCCCCCCC1CC(=O)N[C@@H](CC(C)C)C(=O)N[C@@H](CO)C(=O)N[C@@H]([C@@H](C)O)C(=O)N[C@@H](Cc2ccccc2)C(=O)N[C@@H](C(C)C)C(=O)O1 (stereo not given in full)	> 125	–
CCCCCCCC1CC(=O)N[C@@H](CC(C)C)C(=O)N[C@@H](CO)C(=O)N[C@@H]([C@@H](C)O)C(=O)N[C@@H](Cc2ccccc2)C(=O)N[C@@H](C(C)C)C(=O)O1 (stereo not given in full)	> 125	–
